Measurements taken from US20260184687A1, “DIHYDROINDENE DERIVATIVES AS MALT1 INHIBITORS” (C4X Discovery Limited, priority 2022, published 2026).
pIC50: −log10 of the molar value.

tested on: IL-2 release from stimulated Jurkat cells; assay: Human IL-2 Release Phenotypic Assay (Assay 3); format: cell-based; details: Homo sapiens, Jurkat, 48 h, Jurkat cells (clone E6-1), 200 ng/mL PMA + 300 ng/mL ionomycin, IL-2 by ELISA
Protocol: This assay measured the inhibition by MALT1 inhibitors of the IL-2 release from stimulated Jurkat cells, a human immortalized T lymphocyte cell line. IL-2 production from Jurkat cells is regulated by activation of NFκB signalling, which is in turn regulated by MALT1 protease activity.
Jurkat cells (clone E6-1, ATCC) were cultured in RPMI1640 supplemented with 10% (v/v) FBS and 1% (v/v) penicillin/streptomycin (100× liquid stocks). Cells were seeded in 96-well white tissue culture-treated plates (Perkin Elmer) at 50 000 cells/well and incubated overnight at 37° C., 5% CO2. Test compounds in DMSO at half-log dilutions were added to the cells and incubated for 30 mins. Final DMSO concentration was 0.5%. Cells were then stimulated with 200 ng/mL PMA+300 ng/mL ionomycin and incubated for 48 hours. […] IC50 values were calculated using GraphPad Prism using 4-parameter non-linear regression curve fit.

Row | pIC50 | Compound
1 | 5.71 | CN(C(=O)C1CCS(=O)(=O)CC1)[C@@H](c1ccc(NC2Cc3ccccc3C2)cc1)C(F)(F)F [Example 3, (S)—N-(1-(4-((2,3-Dihydro-1H-inden-2-yl)amino)phenyl)-2,2,2-trifluoroethyl)-N-methyltetrahydro-2H-thiopyran-4-carboxamide 1,1-dioxide]
2 | 6.74 | CN(C(=O)[C@@H]1CNC(=O)C1)[C@@H](c1ccc(N[C@H]2Cc3ccccc3C2(C)C)cn1)C(F)(F)F [Example 160, (S)—N—((S)-1-(5-(((S)-1,1-Dimethyl-2,3-dihydro-1H-inden-2-yl)amino)pyridin-2-yl)-2,2,2-trifluoroethyl)-N-methyl-5-oxopyrrolidine-3-carboxamide]
3 | 6.29 | CN(C(=O)[C@H]1CNC(=O)C1)[C@@H](c1ccc(N[C@H]2Cc3ccccc3C2(C)C)cn1)C(F)(F)F [Example 166, (R)—N—((S)-1-(5-(((S)-1,1-Dimethyl-2,3-dihydro-1H-inden-2-yl)amino)pyridin-2-yl)-2,2,2-trifluoroethyl)-N-methyl-5-oxopyrrolidine-3-carboxamide]
4 | 6.14 | CC(=O)N1CC[C@H](C(=O)N(C)[C@@H](c2ccc(N[C@H]3Cc4ccccc4C3(C)C)cn2)C(F)(F)F)C1 [Example 169, (S)-1-Acetyl-N—((S)-1-(5-(((S)-1,1-dimethyl-2,3-dihydro-1H-inden-2-yl)amino)pyridin-2-yl)-2,2,2-trifluoroethyl)-N-methylpyrrolidine-3-carboxamide]
5 | 6.68 | CN(C(=O)[C@@H]1CCC(=O)N1)[C@@H](c1ccc(N[C@H]2Cc3ccccc3C2(C)C)cn1)C(F)(F)F [Example 170, (S)—N—((S)-1-(5-(((S)-1,1-Dimethyl-2,3-dihydro-1H-inden-2-yl)amino)pyridin-2-yl)-2,2,2-trifluoroethyl)-N-methyl-5-oxopyrrolidine-2-carboxamide]
6 | 6.40 | CC(=O)N[C@H]1C[C@@H](C(=O)N(C)[C@@H](c2ccc(N[C@H]3Cc4ccccc4C3(C)C)cn2)C(F)(F)F)C1 [Example 182, (1,3-cis)-3-Acetamido-N—((S)-1-(5-(((S)-1,1-dimethyl-2,3-dihydro-1H-inden-2-yl)amino)pyridin-2-yl)-2,2,2-trifluoroethyl)-N-methylcyclobutane-1-carboxamide]
7 | 6.29 | CC(=O)N1C[C@H](O)C[C@H]1C(=O)N(C)[C@@H](c1ccc(N[C@H]2Cc3ccccc3C2(C)C)cn1)C(F)(F)F [Example 183, (2S,4R)-1-Acetyl-N—((S)-1-(5-(((S)-1,1-dimethyl-2,3-dihydro-1H-inden-2-yl)amino)pyridin-2-yl)-2,2,2-trifluoroethyl)-4-hydroxy-N-methylpyrrolidine-2-carboxamide]

same assay, conditions: Jurkat cells (clone E6-1), 200 ng/mL PMA + 300 ng/mL ionomycin, 48 hours, IL-2 by ELISA

Row | pIC50 | Compound
8 | 6.60 | CN(C(=O)N1CCC(C)(O)CC1)[C@@H](c1ccc(NC2Cc3ccccc3C2(C)C)cc1)C(F)(F)F (single isomer, unassigned) [Example 16]
9 | 5.53 | CN(C(=O)N1CCC(C)(O)CC1)[C@@H](c1ccc(NC2Cc3ccccc3C2(C)C)cc1)C(F)(F)F (single isomer, unassigned) [Example 17]
10 | 6.07 | CN(C(=O)c1cc[nH]c(=O)c1)C(c1ccc(NC2Cc3ccccc3C2(C)C)nc1)C(F)(F)F (single isomer, unassigned) [Example 100, N-(1-(6-((1,1-Dimethyl-2,3-dihydro-1H-inden-2-yl)amino)pyridin-3-yl)-2,2,2-trifluoroethyl)-N-methyl-2-oxo-1,2-dihydropyridine-4-carboxamide]
11 | 5.58 | CN(C(=O)c1cc[nH]c(=O)c1)C(c1ccc(NC2Cc3ccccc3C2(C)C)nc1)C(F)(F)F (single isomer, unassigned) [Example 101, N-(1-(6-((1,1-Dimethyl-2,3-dihydro-1H-inden-2-yl)amino)pyridin-3-yl)-2,2,2-trifluoroethyl)-N-methyl-2-oxo-1,2-dihydropyridine-4-carboxamide]

biological target: T1, FL hMALT1 enzyme (Homo sapiens, UniProt Q9UDY8); assay: biochemical; details: not given;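 note: Cell-free protease assay: enzyme preincubated with compound 30 min at room temperature, then cleavage of fluorogenic Ac-LVSR-AMC substrate (100 µM) tracked by fluorescence (ex 360/em 460 nm)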
T1 sequence (Q9UDY8 1-824): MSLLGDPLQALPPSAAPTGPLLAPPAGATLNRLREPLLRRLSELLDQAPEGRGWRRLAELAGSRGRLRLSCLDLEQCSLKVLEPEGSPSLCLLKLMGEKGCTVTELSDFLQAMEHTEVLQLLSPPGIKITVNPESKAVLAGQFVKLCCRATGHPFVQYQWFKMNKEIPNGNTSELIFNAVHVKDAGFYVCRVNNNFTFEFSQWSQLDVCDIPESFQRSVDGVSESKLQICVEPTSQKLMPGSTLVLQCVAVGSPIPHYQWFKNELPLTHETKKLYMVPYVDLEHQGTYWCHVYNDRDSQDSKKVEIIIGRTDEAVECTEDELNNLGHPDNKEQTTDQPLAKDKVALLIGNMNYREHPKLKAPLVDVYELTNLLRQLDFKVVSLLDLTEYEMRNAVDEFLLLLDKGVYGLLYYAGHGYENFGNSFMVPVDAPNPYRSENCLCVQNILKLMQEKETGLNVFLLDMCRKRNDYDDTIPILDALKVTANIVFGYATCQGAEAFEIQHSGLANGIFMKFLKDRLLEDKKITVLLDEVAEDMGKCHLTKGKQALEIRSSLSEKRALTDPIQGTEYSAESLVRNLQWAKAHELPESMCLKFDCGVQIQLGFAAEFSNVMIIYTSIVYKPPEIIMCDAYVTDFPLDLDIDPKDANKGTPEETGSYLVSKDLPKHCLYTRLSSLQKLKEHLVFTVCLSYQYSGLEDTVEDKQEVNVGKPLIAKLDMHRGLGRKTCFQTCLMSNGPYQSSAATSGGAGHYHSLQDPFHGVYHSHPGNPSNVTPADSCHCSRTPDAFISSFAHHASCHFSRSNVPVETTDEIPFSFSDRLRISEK

Row | pIC50 | Compound
12 | 6.72 | CN(C(=O)C1CNC(=O)O1)[C@@H](c1ccc(N[C@H]2Cc3ccc(Cl)cc3C2)cn1)C(F)(F)F (stereo partly drawn) [Example 303, N—((S)-1-(5-(((S)-5-Chloro-2,3-dihydro-1H-inden-2-yl)amino)pyridin-2-yl)-2,2,2-trifluoroethyl)-N-methyl-2-oxooxazolidine-5-carboxamide]
13 | 7.15 | CNC(=O)[C@H]1C[C@H](C(=O)N(C)[C@@H](c2ccc(NC3Cc4ccc(Cl)c(Cl)c4C3)cn2)C(F)(F)F)C1 (stereo partly drawn) [Example 363, (1,3-trans)-N^1-((1S)-1-(5-((4,5-Dichloro-2,3-dihydro-1H-inden-2-yl)amino)pyridin-2-yl)-2,2,2-trifluoroethyl)-N^1,N^3-dimethylcyclobutane-1,3-dicarboxamide]
14 | 6.57 | CNC(=O)C1(C(=O)N(C)[C@@H](c2ccc(NC3Cc4ccc(Cl)c(F)c4C3)cn2)C(F)(F)F)CC1 (stereo partly drawn) [Example 368, N-((1S)-1-(5-((5-Chloro-4-fluoro-2,3-dihydro-1H-inden-2-yl)amino)pyridin-2-yl)-2,2,2-trifluoroethyl)-N,N′-dimethylcyclopropane-1,1-dicarboxamide]

The remaining lines, values behind:

Row | Compound | pIC50
15 | CN(C(=O)C1CCS(=O)(=O)CC1)[C@@H](c1ccc(NC2Cc3cc(Cl)c(OC(F)F)cc3C2)cn1)C(F)(F)F (stereo partly drawn) [Example 291, N-((1S)-1-(5-((5-Chloro-6-(difluoromethoxy)-2,3-dihydro-1H-inden-2-yl)amino)pyridin-2-yl)-2,2,2-trifluoroethyl)-N-methyltetrahydro-2H-thiopyran-4-carboxamide 1,1-dioxide] | 6.47
16 | CNC(=O)C12C3C4C1C1C2C3C41C(=O)N(C)[C@@H](c1ccc(NC2Cc3ccc(Cl)cc3C2)cn1)C(F)(F)F (stereo partly drawn) [Example 292, N^1-((1S)-1-(5-((5-Chloro-2,3-dihydro-1H-inden-2-yl)amino)pyridin-2-yl)-2,2,2-trifluoroethyl)-N^1,N^4-dimethylcubane-1,4-dicarboxamide] | 6.08
17 | CN(C(=O)C1CCS(=O)(=O)CC1)[C@@H](c1ccc(NC2Cc3cc(F)c(Br)cc3C2)cn1)C(F)(F)F (stereo partly drawn) [Example 310, N-((1S)-1-(5-((5-Bromo-6-fluoro-2,3-dihydro-1H-inden-2-yl)amino)pyridin-2-yl)-2,2,2-trifluoroethyl)-N-methyltetrahydro-2H-thiopyran-4-carboxamide 1,1-dioxide] | 6.37
18 | CN(C(=O)C1CCS(=O)(=O)CC1)[C@@H](c1ccc(NC2Cc3ccc(OC(F)F)cc3C2)cn1)C(F)(F)F (stereo partly drawn) [Example 324, N-((1S)-1-(5-((5-(Difluoromethoxy)-2,3-dihydro-1H-inden-2-yl)amino)pyridin-2-yl)-2,2,2-trifluoroethyl)-N-methyltetrahydro-2H-thiopyran-4-carboxamide 1,1-dioxide] | 6.00
19 | CN(C(=O)C1CCS(=O)(=O)CC1)[C@@H](c1ccc(NC2Cc3cccc(OC(F)F)c3C2)cn1)C(F)(F)F (stereo partly drawn) [Example 333, N-((1S)-1-(5-((4-(Difluoromethoxy)-2,3-dihydro-1H-inden-2-yl)amino)pyridin-2-yl)-2,2,2-trifluoroethyl)-N-methyltetrahydro-2H-thiopyran-4-carboxamide 1,1-dioxide] | 6.80
20 | CN(C(=O)C1CS(=O)(=O)C1)[C@@H](c1ccc(NC2Cc3ccc(Cl)c(Cl)c3C2)cn1)C(F)(F)F (stereo partly drawn) [Example 355, N-((1S)-1-(5-((4,5-Dichloro-2,3-dihydro-1H-inden-2-yl)amino)pyridin-2-yl)-2,2,2-trifluoroethyl)-N-methylthietane-3-carboxamide 1,1-dioxide] | 6.82
21 | COCc1c(Cl)ccc2c1CC(Nc1ccc([C@H](N(C)C(=O)C3CCS(=O)(=O)CC3)C(F)(F)F)nc1)C2 (stereo partly drawn) [Example 356, N-((1S)-1-(5-((5-Chloro-4-(methoxymethyl)-2,3-dihydro-1H-inden-2-yl)amino)pyridin-2-yl)-2,2,2-trifluoroethyl)-N-methyltetrahydro-2H-thiopyran-4-carboxamide 1,1-dioxide] | 6.68
22 | CC(C)c1c(Cl)ccc2c1CC(Nc1ccc([C@H](N(C)C(=O)C3CCS(=O)(=O)CC3)C(F)(F)F)nc1)C2 (stereo partly drawn) [Example 369, N-((1S)-1-(5-((5-Chloro-4-isopropyl-2,3-dihydro-1H-inden-2-yl)amino)pyridin-2-yl)-2,2,2-trifluoroethyl)-N-methyltetrahydro-2H-thiopyran-4-carboxamide 1,1-dioxide] | 7.14
